Data on 64 compounds can be found in patent US9416126B2, “Compounds inhibiting leucine-rich repeat kinase enzyme activity” (Merck Sharp & Dohme Corp., priority 2013, dated 2016).

LRRK2(G2019S mutation, GST-LRRK2(amino acids 970-2527)), sequence (Q5S007 970-2527 G2019S): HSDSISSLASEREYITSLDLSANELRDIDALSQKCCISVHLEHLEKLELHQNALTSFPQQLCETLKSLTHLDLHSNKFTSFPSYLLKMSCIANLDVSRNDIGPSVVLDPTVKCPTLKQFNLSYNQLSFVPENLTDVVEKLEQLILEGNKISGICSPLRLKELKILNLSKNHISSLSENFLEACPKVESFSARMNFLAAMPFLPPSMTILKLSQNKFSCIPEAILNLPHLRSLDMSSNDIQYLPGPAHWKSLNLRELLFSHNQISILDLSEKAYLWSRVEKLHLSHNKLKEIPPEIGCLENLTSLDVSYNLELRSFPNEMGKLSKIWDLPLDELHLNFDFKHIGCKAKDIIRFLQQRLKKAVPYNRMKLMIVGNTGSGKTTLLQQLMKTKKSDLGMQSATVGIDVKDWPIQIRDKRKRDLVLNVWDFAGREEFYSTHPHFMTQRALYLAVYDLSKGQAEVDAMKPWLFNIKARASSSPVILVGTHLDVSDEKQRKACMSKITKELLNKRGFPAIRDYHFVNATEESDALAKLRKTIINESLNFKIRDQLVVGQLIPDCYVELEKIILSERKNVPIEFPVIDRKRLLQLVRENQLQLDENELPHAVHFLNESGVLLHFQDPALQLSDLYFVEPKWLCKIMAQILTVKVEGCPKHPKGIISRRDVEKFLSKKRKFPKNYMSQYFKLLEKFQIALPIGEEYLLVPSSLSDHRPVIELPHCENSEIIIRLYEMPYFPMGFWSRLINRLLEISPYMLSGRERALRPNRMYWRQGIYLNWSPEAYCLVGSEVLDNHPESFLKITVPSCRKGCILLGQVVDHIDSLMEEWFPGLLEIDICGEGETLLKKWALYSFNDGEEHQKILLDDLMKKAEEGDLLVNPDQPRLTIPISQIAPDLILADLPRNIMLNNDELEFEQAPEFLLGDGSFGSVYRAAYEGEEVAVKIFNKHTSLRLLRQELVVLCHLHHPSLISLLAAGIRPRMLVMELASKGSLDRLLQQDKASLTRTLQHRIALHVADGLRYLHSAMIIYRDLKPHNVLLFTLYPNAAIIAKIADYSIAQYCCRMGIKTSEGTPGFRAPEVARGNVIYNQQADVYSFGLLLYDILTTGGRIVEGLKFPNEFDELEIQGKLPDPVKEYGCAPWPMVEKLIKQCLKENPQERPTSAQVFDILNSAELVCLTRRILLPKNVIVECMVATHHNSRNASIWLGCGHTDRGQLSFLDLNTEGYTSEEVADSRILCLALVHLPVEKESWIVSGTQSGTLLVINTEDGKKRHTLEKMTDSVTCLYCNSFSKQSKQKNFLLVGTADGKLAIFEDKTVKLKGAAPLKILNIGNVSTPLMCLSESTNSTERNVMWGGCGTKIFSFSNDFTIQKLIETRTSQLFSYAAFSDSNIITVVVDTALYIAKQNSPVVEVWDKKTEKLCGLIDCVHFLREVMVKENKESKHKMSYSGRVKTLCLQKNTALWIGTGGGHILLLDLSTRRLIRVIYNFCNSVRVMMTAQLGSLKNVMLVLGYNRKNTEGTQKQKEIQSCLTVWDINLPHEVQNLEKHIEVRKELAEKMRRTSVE

In one experiment the target is LRRK2(G2019S mutation, GST-LRRK2(amino acids 970-2527)) (Homo sapiens (Human), UniProt Q5S007, G2019S). As to the kind of experiment: LRRK2 Km ATP LanthaScreen Assay. Conditions: Examples N1-N25. In kind it is biochemical. As for the experimental part:
Unless otherwise noted, all LRRK2 IC50 data presented in tables refers to the LRRK2 Km ATP LanthaScreen™ Assay that is described in the Biological Assay section.
The data presented for the 5 mM and Km ATP LanthaScreen™ Assay represents mean IC50 values based on several test results and may have reasonable. deviations depending on the specific conditions and reagents used. Reagents for the LRRK2 5 mM and Km ATP LanthaScreen™ Assay were purchased from Life Technologies Corporation.
LRRK2 Km ATP LanthaScreen™ Assay
a) 400 nl of a 1:2.15 serial dilution of test compound(98 μM top assay concentration) is spotted via Labcyte Echo to certain wells in a 384 well black, untreated plate. Control wells contain 400 nl of either DMSO or 400 nl of a known inhibitor in DMSO.
b) 10 μl of a 2.5 nM LRRK2(G2019S mutation, GST-LRRK2(amino acids 970-2527)) enzyme solution in 1× assay buffer(50 mM Tris pH 8.5, 10 mM MgCl2, 0.01% Brij-35, 1 mM EGTA, 2 mM DTT, 0.05 mM NaVO4) is added to all wells.
c) A 30 minute room temperature incubation is followed by addition of 10 μl of 800 nM fluorescein labeled LRRKtide peptide substrate and 184 μM ATP solution in 1× assay buffer to all wells.
d) After a 60 minute room temperature incubation, 20 μl of TR-FRET Dilution Buffer(Invitrogen PV3756B) containing 4 nM Tb-labeled anti-phospho LRRKtide antibody and 20 mM EDTA is added to all wells.
e) Plates are incubated at room temperature for 1 hour and read on an Envision™ multi-mode plate reader with LanthaScreen™ settings. Results are analysed using Assay Data Analyzer.
In general terms: TR-FRET usually uses a lanthanide donor and a delayed reading to cut background.
For the compound `CC(C)Oc1cc2c(-c3cc(N4CCN(CCCO)CC4)ncn3)n[nH]c2cc1F` [Example N23], half-maximal inhibition (IC50) required 0.0031 µM.

Regarding `CC(C)Oc1cc2c(-c3cc(N4CC[S+]([O-])CC4)ncn3)n[nH]c2cc1F` [Example N9], 0.0061 µM corresponded to half-maximal inhibition (IC50).

For `CC(C)Oc1cc2c(-c3cc(N4C5CCC4COC5)ncn3)n[nH]c2cc1F` [Example N11], the IC50 – broadly, the concentration that inhibits the measured activity by half – was found to be 0.0182 µM.

Staying with this experiment, now noted: Examples O1-O23.
On to `COC[C@H](C)Oc1ccc2[nH]nc(-c3cc(N4CCc5oc(C)nc5C4)ncn3)c2c1` [Example O17], for which the IC50 is 0.0084 µM.

In the case of `COC[C@H](C)Oc1ccc2[nH]nc(-c3cc(N4CCN5C(=O)OCC5C4)ncn3)c2c1` (stereo partly shown) [Example O20], inhibition was half-maximal at 0.0088 µM (IC50).

`COC[C@H](C)Oc1ccc2[nH]nc(-c3cc(N4CCn5ncnc5C4)ncn3)c2c1` [Example O1] came in with an IC50 of 0.0202 µM.

Still in this experiment, the particulars now being: Examples P1-P18.
Consider `O=S(=O)(c1ccc(-c2ccc3[nH]nc(-c4cc(N5CCOCC5)ncn4)c3c2)cc1)N1CCCC1` [Example P9], for which inhibition was half-maximal at 0.914 µM (IC50).

The compound `COc1ccc(-c2ccc3[nH]nc(-c4cc(N5CCOCC5)ncn4)c3c2)cn1` [Example P17] returned an IC50 of 0.0312 µM.

`COc1ncccc1-c1ccc2[nH]nc(-c3cc(N4CCOCC4)ncn3)c2c1` [Example P14]: the IC50 came out at 0.0377 µM.

`N#Cc1cccc(-c2ccc3[nH]nc(-c4cc(N5CCOCC5)ncn4)c3c2)c1` [Example P7] showed an IC50 of 0.0813 µM.

`COc1cncc(-c2ccc3[nH]nc(-c4cc(N5CCOCC5)ncn4)c3c2)n1` [Example P11] came in with an IC50 of 0.0183 µM.

As for `COCCn1cc(-c2ccc3[nH]nc(-c4cc(N5CCOCC5)ncn4)c3c2)cn1` [Example P16], half-maximal inhibition (IC50) required 0.0015 µM.

Still in this experiment, the particulars now being: Examples Q1-Q20.
Consider `C[C@@H]1CN(c2cc(-c3n[nH]c4ccc(-c5ccnn5C)cc34)ncn2)C[C@H](C)O1` [Example Q3], for which the midpoint of inhibition, the IC50, lay at 0.0321 µM.

Consider `Cc1cncc(-c2ccc3[nH]nc(-c4cc(N5C[C@@H](C)O[C@@H](C)C5)ncn4)c3c2)c1` [Example Q4], for which the IC50 was found to be 0.0022 µM.

As for `CCN(CC)C(=O)c1ccc(-c2ccc3[nH]nc(-c4cc(N5C[C@@H](C)O[C@@H](C)C5)ncn4)c3c2)cc1` [Example Q20], the midpoint of inhibition, the IC50, lay at 0.847 µM.

`COc1cncc(-c2ccc3[nH]nc(-c4cc(N5C[C@@H](C)O[C@@H](C)C5)ncn4)c3c2)n1` [Example Q10] yielded an IC50 of 0.0024 µM.

Staying with this experiment, now noted: Km ATP (184 μM ATP solution), G2019S LRRK2, mean IC50.
With `CC(C)Oc1ccc2[nH]nc(-c3cc(N4CCC(C(C)(C)O)CC4)ncn3)c2c1` [Example K18], the midpoint of inhibition, the IC50, lay at 0.0054 µM.

`Cn1cc(-c2ccc3[nH]nc(-c4cc(N5CC[S+]([O-])CC5)ncn4)c3c2)cn1` [Example M11]: the IC50 was 0.0268 µM.

`[2H]C1([2H])OC([2H])([2H])C([2H])([2H])N(c2cc(-c3n[nH]c4ccc(OC(C)C)cc34)ncn2)C1([2H])[2H]` [Example D11] returned an IC50 of 0.00712 µM.

Consider `COC[C@H](C)Oc1ccc2[nH]nc(-c3cc(N4CCC5(CCC(=O)N5)CC4)ncn3)c2c1` [Example H9], for which the IC50 amounted to 0.00436 µM.

Consider `COCCOc1ccc2[nH]nc(-c3cc(N4CCO[C@H](C)C4)ncn3)c2c1` [Example G10], for which the IC50 was 0.0428 µM.

The compound `Cc1nc2c(o1)CCN(c1cc(-c3n[nH]c4ccc(-c5cnn(C)c5)cc34)ncn1)C2` [Example M14] displayed an IC50 of 0.0028 µM.

`CC(C)NC(=O)CN1CCN(c2cc(-c3n[nH]c4ccc(OC(C)C)cc34)ncn2)CC1` [Example K1] returned an IC50 of 0.0051 µM.

Compound `CC(C)Oc1cc2c(-c3cc(N4CCNC(=O)C4)ncn3)n[nH]c2cc1F` [Example D37] gave a half-maximal inhibitory concentration (IC50) of 0.00289 µM.

`CC(C)Oc1ccc2[nH]nc(-c3cc(N4CCC(O)CC4)ncn3)c2c1` [Example J1] yielded an IC50 of 0.0059 µM.

On to `CC(C)Oc1ccc2[nH]nc(-c3cc(N4CCCCC4)ncn3)c2c1` [Example J3], for which the IC50 stood at 0.0106 µM.

In the case of `COCCOc1ccc2[nH]nc(-c3cc(N4C[C@H](F)[C@@H](F)C4)ncn3)c2c1` [Example G3], half-maximal inhibition (IC50) required 0.139 µM.

In turn, `CC(C)Oc1ccc2[nH]nc(-c3cc(N4CCn5nc(C6CC6)nc5C4)ncn3)c2c1` [Example K19] displayed an IC50 of 0.0182 µM.

Consider `COC[C@H](C)Oc1ccc2[nH]nc(-c3cc(N4CCC5(CCNC5=O)CC4)ncn3)c2c1` [Example H16], for which the IC50 was found to be 0.00283 µM.

Turning to `COc1ccc2[nH]nc(-c3cc(N4CCNC(=O)C4)ncn3)c2c1` [Example E10], the IC50 is 0.101 µM.

`Cn1cc(-c2ccc3[nH]nc(-c4cc(N5CC[C@H](CO)C5)ncn4)c3c2)cn1` [Example M5] came in with an IC50 of 0.0025 µM.

`Cn1cc(-c2cc3c(-c4cc(N5CCS(=O)(=O)CC5)ncn4)n[nH]c3cc2F)cn1` [Example L22] gave a half-maximal inhibitory concentration (IC50) of 0.146 µM.

`Cn1cc(-c2cc3c(-c4cc(N5CC[C@@H](CO)C5)ncn4)n[nH]c3cc2F)cn1` [Example L4] displayed an IC50 of 0.0368 µM.

Consider `COC1CCCN(c2cc(-c3n[nH]c4ccc(OC(C)C)cc34)ncn2)C1` (stereo not shown) [Example K4], for which the midpoint of inhibition, the IC50, lay at 0.0127 µM.

Take `CC(C)Oc1ccc2[nH]nc(-c3cc(N4CCC(C#N)CC4)ncn3)c2c1` [Example K8]: half-maximal inhibition (IC50) required 0.0072 µM.

For `COC[C@H](C)Oc1ccc2[nH]nc(-c3cc(N4CCC5(CCCO5)CC4)ncn3)c2c1` [Example H14], it took 0.00202 µM to reach half-maximal inhibition (IC50).

With `CC(C)Oc1cc2c(-c3cc(N4CCN(C)[C@@H](C)C4)ncn3)n[nH]c2cc1F` [Example D50], the IC50 turned out to be 0.0012 µM.

`CCN1CCN(c2cc(-c3n[nH]c4ccc(OC)cc34)ncn2)CC1` [Example E8]: the IC50 turned out to be 0.0243 µM.

As to `c1cncc(-c2ccc3[nH]nc(-c4cc(N5CCOCC5)ncn4)c3c2)c1` [Example T1], the IC50 amounted to 0.0055 µM.

Consider `Cn1cc(-c2ccc3[nH]nc(-c4cc(N5CCCC6(CCO6)C5)ncn4)c3c2)cn1` (stereo not shown) [Example M16], for which the IC50 was determined as 0.0109 µM.

On to `CCOc1ccc2[nH]nc(-c3cc(N4CCN(CC)C(=O)C4)ncn3)c2c1` [Example F9], for which 0.0167 µM corresponded to half-maximal inhibition (IC50).

Turning to `CC(C)Oc1cc2c(-c3cc(N4CCN(C)C(=O)C4)ncn3)n[nH]c2cc1F` [Example D70], the IC50 came out at 0.00219 µM.

The compound `Cn1cc(-c2cc3c(-c4cc(N5CCN(C6CC6)CC5)ncn4)n[nH]c3cc2F)cn1` [Example L11] gave an IC50 of 0.0177 µM.

`CC(C)Oc1ccc2[nH]nc(-c3cc(N4CCC(n5cccn5)CC4)ncn3)c2c1` [Example K14]: the midpoint of inhibition, the IC50, lay at 0.0153 µM.

`CCOc1ccc2[nH]nc(-c3cc(N4CCO[C@@H](C)C4)ncn3)c2c1` [Example F13] registered an IC50 of 0.0412 µM.

In the case of `CC(C)Oc1ccc2[nH]nc(-c3cc(N4C[C@@H](C)O[C@@H](C)C4)ncn3)c2c1` [Example J6], the IC50 amounted to 0.0078 µM.

`CCOc1ccc2[nH]nc(-c3cc(N4CCO[C@H](C)C4)ncn3)c2c1` [Example F12] displayed an IC50 of 0.0105 µM.

The compound `CC(C)Oc1ccc2[nH]nc(-c3cc(N4CC[C@@H](N)C4)ncn3)c2c1` [Example D43] registered an IC50 of 0.00878 µM.

Turning to `CC(C)=Cc1ccc2[nH]nc(-c3cc(N4CCN(C)C(=O)C4)ncn3)c2c1` [Example S4], it took 0.0362 µM to reach half-maximal inhibition (IC50).

Regarding `CC(C)Oc1ccc2[nH]nc(-c3cc(N4CCO[C@H](C)C4)ncn3)c2c1` [Example J9], half-maximal inhibition (IC50) required 0.0092 µM.

`CC(C)Oc1ccc2[nH]nc(-c3cc(N4CCN(c5nnc(C6CC6)o5)CC4)ncn3)c2c1` [Example J21] returned an IC50 of 0.014 µM.

`CC(C)Oc1ccc2[nH]nc(-c3cc(N4CCN(CCF)C(=O)C4)ncn3)c2c1` [Example D33] yielded an IC50 of 0.0033 µM.

`C[C@@H]1CN(c2cc(-c3n[nH]c4ccc(-c5cnn(C)c5)cc34)ncn2)C[C@H](C)O1` [Example A11] showed an IC50 of 0.0014 µM.

In the case of `CC(C)Oc1ccc2[nH]nc(-c3cc(N4CC(n5cnnc5)C4)ncn3)c2c1` [Example J23], 0.0201 µM corresponded to half-maximal inhibition (IC50).

Take `CCCN1CCN(c2cc(-c3n[nH]c4cc(F)c(OC(C)C)cc34)ncn2)CC1=O` [Example D66]: half-maximal inhibition (IC50) was put at 0.00277 µM.

For `CC(C)=Cc1ccc2[nH]nc(-c3cc(N4CCO[C@H](C)C4)ncn3)c2c1` [Example S1], the midpoint of inhibition, the IC50, lay at 0.0164 µM.

With `COC[C@@H](C)Oc1ccc2[nH]nc(-c3cc(N4CCOCC4)ncn3)c2c1` [Example H1], half-maximal inhibition (IC50) was put at 0.0562 µM.

In turn, `COc1ccc2[nH]nc(-c3cc(N4CC5CCC(C4)O5)ncn3)c2c1` [Example E6] gave an IC50 of 0.148 µM.

Staying with this experiment, now noted: Table U.
In turn, `c1cc(-c2ccc3[nH]nc(-c4cc(N5CCOCC5)ncn4)c3c2)[nH]n1` [Example U14] returned an IC50 of 0.00263 µM.

Regarding `Cc1ccc(-c2ccc3[nH]nc(-c4cc(N5CCOCC5)ncn4)c3c2)cc1` [Example U15], the IC50 came to 0.251 µM.

For `CC(C)N1CCN(c2cc(-c3n[nH]c4ccc(-c5ccoc5)cc34)ncn2)CC1` [Example U22], the IC50 was 0.00903 µM.

The compound `c1nc(-c2n[nH]c3ccc(-c4ccoc4)cc23)cc(N2CCOCC2)n1` [Example U8] came in with an IC50 of 0.019 µM.

Compound `c1nc(-c2n[nH]c3ccc(-c4cn[nH]c4)cc23)cc(N2CCOCC2)n1` [Example U16] came in with an IC50 of 0.0023 µM.

Consider `CC(C)N1CCN(c2cc(-c3n[nH]c4ccc(-c5ccn[nH]5)cc34)ncn2)CC1` [Example U25], for which the midpoint of inhibition, the IC50, lay at 0.00234 µM.
